According to patent US9409952B2, “Peptide-compound cyclization method” (Chugai Seiyaku Kabushiki Kaisha, priority 2011, dated 2016):
Where two headings read alike, the source gives them in different places. Starred links: 1 amine or outer side, 2 acyl side, 3 side chain; linkers in the order of their positions; H or OH if unused. Positions of bridges follow the written chain, without caps; N, C: chain ends. Non-standard residues stand in square brackets, D forms with d. Residues, ends and D or L forms follow the SMILES beside them. ξ: configuration not given here. *: point of attachment. NMeF = CN[C@@H](Cc1ccccc1)C(=O)O; NMeGABA = CN(CCCC(=O)[*:2])[*:1]; NMeI = CC[C@H](C)[C@H](NC)C(=O)O; NMeβAla = CN(CCC(=O)[*:2])[*:1]; NMeL = CN[C@@H](CC(C)C)C(=O)O; ξNMeF = CNC(Cc1ccccc1)C(=O)O; NMeV = CN[C@H](C(=O)O)C(C)C; NMeA = CN[C@@H](C)C(=O)O; Piperidide = C1CCN(*)CC1; dNMeA = CN[C@H](C)C(=O)O; Sar = CNCC(=O)O; tBu = CC(C)(C)*

Tests used:
[1] = PAMPA (parallel artificial membrane permeability assay); type: in vitro ADME; conditions: PAMPA
Summary of the method: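 Artificial membrane was 10% (w/v) egg lecithin plus 0.5% (w/v) cholesterol in dodecane on a PVDF filter. A 10 mM DMSO stock was added at 0.5% (v/v) to donor buffer (50 mM MOPSO, pH 6.5, 5.0% glycocholic acid). After 18 h at 37 °C, LC/MS or LC/UV gave donor and acceptor levels for Pe.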

[2] = Metabolic stability in human hepatic microsome; type: in vitro ADME; conditions: microsomes
[3] = membrane permeation rate (Pe), 50 mM MOPSO buffer pH 6.5 with 5.0% glycocholic acid, 37° C., 18 hours, read-out: iPAMPA Pe
[4] = pH 7.4, human hepatic microsome, NADPH(+), read-out: CL NADPH(+)

SMILES | Papp at 18 hours, 50 µM ([1]; pH 6.5) | microsomal CLint at 1 uM ([2]; human, pH 7.4, CL NADPH(+)) | Papp at 18 hours, 50 µM [1, 3] | microsomal CLint at 1 uM [2, 4]
CC[C@H](C)[C@H]1C(=O)N(C)[C@@H](CC(C)C)C(=O)N[C@H](C(=O)N2CCCCC2)CC(=O)N[C@H](C)C(=O)N(C)[C@@H](CC(C)C)C(=O)N[C@@H](CC(C)C)C(=O)N(C)[C@@H](Cc2ccccc2)C(=O)N[C@@H](COC(C)(C)C)C(=O)N(C)[C@@H](Cc2ccccc2)C(=O)N[C@@H]([C@@H](C)O)C(=O)N(C)[C@@H](C)C(=O)N1C [DP-96] ([dA][NMeL]L[NMeF]S(tBu)[NMeF]T[NMeA][NMeI][NMeL]D-Piperidide; lactam N-11) | 13 ×10⁻⁶ cm/s | 51 µL/min/mg |  | 
CC[C@H](C)[C@H]1C(=O)N[C@@H]([C@@H](C)O)C(=O)N(C)CC(=O)N[C@H](C(=O)N2CCCCC2)CC(=O)N[C@H](C)C(=O)N[C@@H](CC(C)C)C(=O)N(C)[C@@H](CC(C)C)C(=O)N(C)[C@@H](Cc2ccccc2)C(=O)N[C@@H](C)C(=O)N(C)[C@@H](Cc2ccccc2)C(=O)N(C)[C@@H](CC(C)C)C(=O)N1C [DP-97] ([dA]L[NMeL][NMeF]A[NMeF][NMeL][NMeI]T[Sar]D-Piperidide; lactam N-11) | 27 ×10⁻⁶ cm/s | 72 µL/min/mg |  | 
CC[C@H](C)[C@H]1C(=O)N(C)[C@@H](C(C)C)C(=O)N(C)CC(=O)N[C@@H]([C@@H](C)O)C(=O)N[C@H](C(=O)N2CCCCC2)CC(=O)N[C@H](C)C(=O)N(C)[C@@H](C)C(=O)N(C)[C@@H](CC(C)C)C(=O)N[C@@H](CC(C)C)C(=O)N(C)[C@@H](Cc2ccccc2)C(=O)N[C@@H](Cc2ccccc2)C(=O)N1C [DP-98] ([dA][NMeA][NMeL]L[NMeF]F[NMeI][NMeV][Sar]TD-Piperidide; lactam N-11) |  |  | 26 ×10⁻⁶ cm/s | 27 µL/min/mg
CC[C@H](C)[C@H]1C(=O)N(C)[C@@H](CC(C)C)C(=O)N(C)[C@@H](Cc2ccccc2)C(=O)N[C@@H]([C@@H](C)O)C(=O)N(C)[C@@H](Cc2ccccc2)C(=O)N(C)[C@@H](CC(C)C)C(=O)N(C)[C@@H](C)C(=O)N[C@H](C(=O)N2CCCCC2)CC(=O)N[C@H](C)C(=O)N[C@@H](C)C(=O)N(C)[C@@H](CC(C)C)C(=O)N1C [DP-99] ([dA]A[NMeL][NMeI][NMeL][NMeF]T[NMeF][NMeL][NMeA]D-Piperidide; lactam N-11) | 56 ×10⁻⁶ cm/s | 52 µL/min/mg |  | 
CC[C@H](C)[C@H]1C(=O)N(C)[C@@H](CC(C)C)C(=O)N[C@H](C(=O)N2CCCCC2)CC(=O)N(C)[C@@H](C)C(=O)N(C)[C@@H](CC(C)C)C(=O)N[C@@H](CC(C)C)C(=O)N(C)[C@@H](Cc2ccccc2)C(=O)N[C@@H](COC(C)(C)C)C(=O)N(C)[C@@H](Cc2ccccc2)C(=O)N[C@@H]([C@@H](C)O)C(=O)N(C)[C@@H](C)C(=O)N1C [DP-100] ([NMeA][NMeL]L[NMeF]S(tBu)[NMeF]T[NMeA][NMeI][NMeL]D-Piperidide; lactam N-11) | 1.7 ×10⁻⁶ cm/s | 80 µL/min/mg |  | 
CC(C)C[C@@H]1NC(=O)CN(C)C(=O)[C@H](C(C)C)N(C)C(=O)[C@H](C)NC(=O)[C@H]([C@@H](C)O)NC(=O)[C@H](CC(C)C)N(C)C(=O)[C@H](C)N(C)C(=O)[C@H](CC(C)C)N(C)C(=O)[C@H](Cc2ccccc2)NC(=O)CCN(C)C(=O)C[C@@H](C(=O)N2CCCCC2)NC1=O [DP-102] ([NMeβAla]F[NMeL][NMeA][NMeL]TA[NMeV][Sar]LD-Piperidide; lactam N-11) | 1.8 ×10⁻⁶ cm/s | 5 µL/min/mg |  | 
CC[C@H](C)[C@H]1C(=O)N[C@@H]([C@@H](C)O)C(=O)N(C)[C@@H](C)C(=O)N(C)[C@@H](CC(C)C)C(=O)N[C@H](C(=O)N2CCCCC2)CC(=O)N(C)CCC(=O)N(C)[C@@H](CC(C)C)C(=O)N[C@@H](CC(C)C)C(=O)N(C)[C@@H](Cc2ccccc2)C(=O)N[C@@H](COC(C)(C)C)C(=O)N(C)C(Cc2ccccc2)C(=O)N1C (stereo partly drawn) [DP-103] ([NMeβAla][NMeL]L[NMeF]S(tBu)[ξNMeF][NMeI]T[NMeA][NMeL]D-Piperidide; lactam N-11) | 19 ×10⁻⁶ cm/s | 73 µL/min/mg |  | 
CC[C@H](C)[C@H]1C(=O)N(C)[C@@H](Cc2ccccc2)C(=O)N[C@@H](CC(C)C)C(=O)N[C@H](C(=O)N2CCCCC2)CC(=O)N(C)CCC(=O)N(C)[C@@H](CC(C)C)C(=O)N[C@@H]([C@@H](C)O)C(=O)N(C)[C@@H](Cc2ccccc2)C(=O)N(C)[C@@H](CC(C)C)C(=O)N[C@@H](C)C(=O)N(C)[C@@H](CC(C)C)C(=O)N1C [DP-104] ([NMeβAla][NMeL]T[NMeF][NMeL]A[NMeL][NMeI][NMeF]LD-Piperidide; lactam N-11) | 6.7 ×10⁻⁶ cm/s | 29 µL/min/mg |  | 
CC[C@H](C)[C@H]1C(=O)N[C@@H]([C@@H](C)O)C(=O)N(C)CC(=O)N(C)[C@@H](CC(C)C)C(=O)N[C@H](C(=O)N2CCCCC2)CC(=O)N(C)[C@H](C)C(=O)N[C@@H](CC(C)C)C(=O)N(C)[C@@H](CC(C)C)C(=O)N(C)[C@@H](Cc2ccccc2)C(=O)N[C@@H](C)C(=O)N(C)[C@@H](Cc2ccccc2)C(=O)N1C [DP-105] ([dNMeA]L[NMeL][NMeF]A[NMeF][NMeI]T[Sar][NMeL]D-Piperidide; lactam N-11) | 45 ×10⁻⁶ cm/s | 60 µL/min/mg |  | 
CC[C@H](C)[C@H]1C(=O)N(C)[C@@H](CC(C)C)C(=O)N[C@@H]([C@@H](C)O)C(=O)N2CCC[C@H]2C(=O)N[C@@H](Cc2ccccc2)C(=O)N[C@H](C(=O)N2CCCCC2)CC(=O)N(C)CC(=O)N(C)[C@@H](CC(C)C)C(=O)N[C@@H](Cc2ccccc2)C(=O)N[C@@H](CC(C)C)C(=O)NCC(=O)N1C [DP-106] ([Sar][NMeL]FLG[NMeI][NMeL]TPFD-Piperidide; lactam N-11) | 34 ×10⁻⁶ cm/s | 155 µL/min/mg |  | 
CC[C@H](C)[C@@H]1NC(=O)[C@H](C)N(C)C(=O)[C@H](CC(C)C)NC(=O)[C@H]([C@@H](C)O)NC(=O)CNC(=O)[C@@H]2CCCN2C(=O)[C@H](COC(C)(C)C)NC(=O)[C@H](CC(C)C)N(C)C(=O)[C@H](Cc2ccccc2)NC(=O)CCCN(C)C(=O)C[C@@H](C(=O)N2CCCCC2)NC(=O)[C@H](Cc2ccccc2)N(C)C1=O [DP-107] ([NMeGABA]F[NMeL]S(tBu)PGTL[NMeA]I[NMeF]D-Piperidide; lactam N-12) |  |  | 23 ×10⁻⁶ cm/s | 14 µL/min/mg
CC[C@H](C)[C@@H]1NC(=O)[C@H](C)N(C)C(=O)[C@H]([C@@H](C)O)NC(=O)[C@H](Cc2ccccc2)N(C)C(=O)CNC(=O)[C@H](CC(C)C)N(C)C(=O)[C@H](C(C)C)NC(=O)[C@H](CC(C)C)N(C)C(=O)[C@H](Cc2ccccc2)NC(=O)[C@H](C)N(C)C(=O)CCCN(C)C(=O)C[C@@H](C(=O)N2CCCCC2)NC1=O [DP-108] ([NMeGABA][NMeA]F[NMeL]V[NMeL]G[NMeF]T[NMeA]ID-Piperidide; lactam N-12) |  |  | 22 ×10⁻⁶ cm/s | 48 µL/min/mg
CC[C@H](C)[C@@H]1NC(=O)[C@H](Cc2ccccc2)N(C)C(=O)[C@@H]2CCCN2C(=O)[C@H]([C@@H](C)O)NC(=O)[C@H](CC(C)C)NC(=O)[C@H](C)N(C)C(=O)CCCN(C)C(=O)C[C@@H](C(=O)N2CCCCC2)NC(=O)[C@H](CC(C)C)NC(=O)[C@H](CC(C)C)N(C)C(=O)CNC(=O)[C@H](Cc2ccccc2)N(C)C1=O [DP-109] ([NMeGABA][NMeA]LTP[NMeF]I[NMeF]G[NMeL]LD-Piperidide; lactam N-12) |  |  | 30 ×10⁻⁶ cm/s | 36 µL/min/mg
CC[C@H](C)[C@@H]1NC(=O)[C@H](Cc2ccccc2)N(C)C(=O)[C@@H](C)NC(=O)C[C@@H](C(=O)N2CCCCC2)NC(=O)[C@H](C(C)C)N(C)C(=O)[C@H](Cc2ccccc2)N(C)C(=O)[C@H](COC(C)(C)C)NC(=O)[C@H](CC(C)C)N(C)C(=O)CN(C)C(=O)[C@H]([C@@H](C)O)NC(=O)[C@H](CC(C)C)N(C)C1=O [DP-110] ([dA][NMeF]I[NMeL]T[Sar][NMeL]S(tBu)[NMeF][NMeV]D-Piperidide; lactam N-11) |  |  | 30 ×10⁻⁶ cm/s | 36 µL/min/mg
CC(C)C[C@@H]1NC(=O)[C@H](CC(C)C)NC(=O)[C@H](C)N(C)C(=O)C[C@@H](C(=O)N2CCCCC2)NC(=O)[C@H](C(C)C)N(C)C(=O)[C@H](CC(C)C)NC(=O)[C@H](Cc2ccccc2)NC(=O)[C@H]([C@@H](C)O)NC(=O)CN(C)C(=O)[C@H](CC(C)C)NC(=O)[C@H](C)NC1=O [DP-111] ([NMeA]LLAL[Sar]TFL[NMeV]D-Piperidide; lactam N-11) | 12 ×10⁻⁶ cm/s | 17 µL/min/mg |  | 
CC[C@H](C)[C@@H]1NC(=O)[C@H](CC(C)C)N(C)C(=O)[C@H](C(C)C)N(C)C(=O)[C@H](C)NC(=O)[C@H](C)N(C)C(=O)[C@H](Cc2ccccc2)NC(=O)[C@H]([C@@H](C)O)NC(=O)[C@H](CC(C)C)N(C)C(=O)[C@H](CC(C)C)N(C)C(=O)[C@H](C)N(C)C(=O)C[C@@H](C(=O)N2CCCCC2)NC1=O [DP-112] ([NMeA][NMeL][NMeL]TF[NMeA]A[NMeV][NMeL]ID-Piperidide; lactam N-11) | 35 ×10⁻⁶ cm/s | 49 µL/min/mg |  | 
CC[C@H](C)[C@@H]1NC(=O)[C@@H]2CCCN2C(=O)[C@H]([C@@H](C)O)NC(=O)[C@H](Cc2ccccc2)NC(=O)CNC(=O)[C@H](Cc2ccccc2)N(C)C(=O)[C@H](CC(C)C)NC(=O)[C@H](CC(C)C)N(C)C(=O)[C@H](CC(C)C)N(C)C(=O)CCCN(C)C(=O)C[C@@H](C(=O)N2CCCCC2)NC1=O [DP-113] ([NMeGABA][NMeL][NMeL]L[NMeF]GFTPID-Piperidide; lactam N-11) | 28 ×10⁻⁶ cm/s | 84 µL/min/mg |  | 
